Assay results: US6534448B1, “Composition and method for acidizing wells and equipment without damaging precipitation” (Halliburton Energy Services, Inc., priority 2000, dated 2003)

Key:
[1] = in vivo
[2] = tested on: marine copepod Arcatia tonsa; experiment: Static 48 hour toxicity test on marine copepod (draft ISO 14669:1999(E)); format: in vivo; settings: test range 200.0 to 2000.0 mg l-1
Procedure: Test concentrations of sodium molybdate crystalline were prepared over the range 200.0 mg 1^−1 to 2000.0 mg 1^−1.

[3] = Amounts of electron transfer agents needed to reduce 2500 ppm ferric ion in less than five minutes (Example III); settings: 15 lbs./Mgal Na2MoO4 in 15% HCl, room temperature
Procedure: The above concentrations were arrived at from room temperature experiments.
Next, tests were conducted to determine the optimum amounts of the electron transfer agent(s) that should be employed in the inventive acidizing composition. Each test fluid included 1% by volume thioglycolic acid, based on the total volume of the acid solution and was contaminated with 2500 ppm ferric ion (by adding a sufficient amount of ferric chloride to the fluid).
These fluids also included the primary electron transfer agent, either sodium molybdate or ammonium molybdate. The amount the molybdate utilized was varied.
These fluids also included the primary electron transfer agent, either sodium molybdate or ammonium molybdate, and the supplemental electron transfer agent (potassium iodide). The amounts of the molybdate and potassium iodide utilized were varied.
The tests were carried out at room temperature. The test fluids were contaminated with 2500 ppm of ferric ion by adding a corresponding amount of iron chloride (FeCl3.H2O) thereto.
It was determined that a complete reduction had taken place when the test fluids changed back to the red-brown color.
It was determined that a complete reduction had taken place when the test fluids changed back to the emerald green color (verified by UV-VIS experiments).

Structure (SMILES)	concentration found to be toxic [1]	24 hour EC50 (concentration which immobilized 50% of the copepods) ([2]; 24 hours)	48 hour EC50 (concentration which immobilized 50% of the copepods) ([2]; 48 hours)	time required for reduction of 2500 ppm Fe(III) to Fe(II) [3]
[Cl][Cu] [cuprous chloride]	≥ 10 ng/mL	–	–	–
[Na+].[Na+].[O]=[Mo](=[O])([O-])[O-] [sodium molybdate crystalline, sodium molybdate]	–	> 2000.0 µg/mL	> 2000.0 µg/mL	2 to 3 min
